Results: paper PMC5397059, “Design, synthesis and structure-activity relationship study of wollamide B; a new potential anti TB agent” (PLoS ONE, 2017)
≈ marks a conversion by molar mass, not a printed value. Where “and” joins values, the source holds several entries; their conditions need not be identical. Equal values may be shown once. Read-outs that look alike come from different tables or passages of the source. Non-standard residues stand in square brackets, D forms with d. Residues, ends and D or L forms follow the SMILES beside them. dPhe(4-Cl) = N[C@H](Cc1ccc(Cl)cc1)C(=O)O; dOrn = NCCC[C@@H](N)C(=O)O

Legend:
[1] = Chemi-Luminescent Nitrogen Detection (CLND) kinetic solubility assay; assay type: physicochemical; settings: phosphate buffered saline, pH 7.4; kinetic aqueous solubility by CLND; read-out: Solubility
Procedure: GSK in-house kinetic solubility assay: 5 μL of 10mM DMSO stock solution diluted to 100 uL with pH7.4 phosphate buffered saline, equilibrated for 1 hour at room temperature, filtered through Millipore Multiscreen HTS-PCF filter plates (MSSL BPC).
The filtrate is quantified by suitably calibrated flow injection CLND. The standard error of the CLND solubility determination is ±30 μM, the upper limit of the solubility is 500 μM when working from 10 mM DMSO stock solution.

Chrom logD assay = assay type: physicochemical; settings: pH 7.4, read-out: Log D
Procedure: The Chromatographic Hydrophobicity Index (CHI) values were measured using a reversed phase HPLC column (50 x 2 mmx 3 μMGemini NX C18, Phenomenex, UK) with fast acetonitrile gradient at starting mobile phase of 100% pH = 7.4 buffer. CHI values are derived directly from the gradient retention times by using a calibration line obtained for standard compounds. The CHI value approximates to the volume % organic concentration when the compound elutes. CHI is linearly transformed into ChromlogD by the formula: ChromlogD=0.0857CHI−2.00
The average error of the assay is ±3 CHI unit or ±0.25 ChromlogD.

[2] = Artificial membrane permeability assay; assay type: in vitro ADME; settings: PAMPA, pH 7.4; passive artificial membrane permeability; read-out: Permeability
Procedure: A 8% L-a-phosphatidylcholine (EPC) in 1% cholesterol decane solution and a 1.8% EPC in cholesterol decane solution were prepared. The lipid solution was then aliquoted into 4 mL capped vials, sealed with parafilm and stored in-20°Cfreezer. The lipid solution was then transferred from 4 mL vial into 96-well half area plate (130μL/well) for daily assay usage. An additional 50 mM phosphate buffer with 0.5% encapsin, pH at 7.4 was prepared. The assay was run by the Biomek FX and Biomek software. The assay procedure is written under the Biomek software. For one batch assay, it can test two 96-well sample plates with at least one standard on each sample plate. The total assay time was about 4 hours. 3.5 μL of lipid solution were added to the filler plate, shaken for 12 seconds, and 250 μL of buffer were added to donor side and 100 μL to the receiver side. The assay plate was shaken for 45 min before adding the compounds. The test compounds (2.5 μL) were added to the donor side. The assay was run as replicates: Assay plates1 and 2 tested the sample plate 1; assay plates 3 and 4 tested the sample plate 2. The assay plates were then incubated and shaken for 3 hours at room temperature.
The assay samples were transferred to the HPLC analysis plates and 100 μL of receiver solution were aspirated and transferred to the receiver for analysis. Similarly, another 100 μL from the donor solution were transferred to the donor analysis plate.
Compound concentration was measured by HPLC at different time-points and permeability was established as nm/sec.

human serum albumin = human serum albumin (Homo sapiens, UniProt P02768); assay: Human serum albumin (HSA) binding assay; assay type: in vitro ADME; settings: human serum albumin binding
Procedure: HSA binding assay was performed according to the method described by Valko K, et al. The basic principle of the measurements is the determination of gradient retention times of compounds on immobilized HSA column and converting these retention times to the appropriate property values using calibration. The peaks are detected and identified by UV. Calibration sets of compounds are measured before each run for which the HSA binding values are known. The retention times of the calibration set of compounds are plotted against these known values. The slope and the intercept of the obtained straight lines are used to calculate the HSA binding for the unknown compounds.

[3] = Plasma stability assay, mouse plasma; assay type: in vitro ADME; settings: CD1, mouse, plasma; 2 hours at 37°C, triplicates; read-out: Plasma stability (% remaining) Mouse
Procedure: (§1) Plasma stability of the compounds was assessed in CD1 mouse and human plasma. Plasma was spiked with 1 μL of a 10 mM of each test compound solution to produce a 1 uM incubation. Three separate 300 μl aliquots were then taken from each tube and incubated at 37°C for 2 h. At each time point (0, 15, 30, 60 and 120 min), 50 μL of plasma were collected from each sample. Samples were extracted by protein precipitation with 250 μL of 0.1% AcOH acetonitrile methanol 3–1 (v/v) containing 1uM internal standard and centrifuged for 10min at 2800rpm. Supernatants were collected prior the injection onto an LC-MS/MS system. Analyte/Internal standard peak area ratios were referenced to the zero time-point samples as 100% in order to determine the percentage of compound remaining for each time-point. Ln plots of the % remaining for each compound were used to determine the half-life for the plasma incubations.

[4] = Plasma stability assay, human plasma; assay type: in vitro ADME; settings: human, plasma; 2 hours at 37°C, triplicates; read-out: Plasma stability (% remaining) Human
Procedure: as §1

[5] = Intrinsic clearance (CLint) assay, mouse liver microsomes; assay type: in vitro ADME; settings: for % LBF Mouse: liver blood flow; for CLint Mouse: mouse liver microsomes; for half-life at 0.5 µM: mouse, pooled mouse liver microsomes, pH 7.4, read-out: Microsomal t1/2 Mouse; for CLpred Mouse: predicted metabolic clearance
Procedure: (§2) Pooled mouse and human liver microsomes are purchased from Xenotech. Microsomes (final protein concentration 0.5 mg/mL, MgCl2 (final concentration = 5 mM) and test compound (final substrate concentration = 0.5] M; final DMSO concentration = 0.5%) in 0.1 M phosphate buffer pH 7.4 are pre-incubated at 37°C prior to the addition of NADPH (final concentration = 1 mM) to initiate the reaction. The final incubation volume is 600 μL.
(§3) Control incubation is included for each compound tested where 0.1 M phosphate buffer pH 7.4 is added instead of NADPH (minus NADPH). One control compound is included with each species. All incubations are performed singularly for each test compound. Each compound is incubated for 45 minutes and samples (100 μL) of incubate are taken at 0, 5, 15, 30 and 45 min. The control (minus NADPH) is sampled at 30 min only. The reactions are stopped by the addition of sample to 200 μL Acetonitrile: Methanol 3:1 containing internal standard. The terminated samples are centrifuged at 2,500 rpm for 20 min at 4°C to precipitate the protein. Quantitative analysis: following protein precipitation, the samples were analyzed using specific LC-MS/MS conditions. Data analysis: from a plot of ln peak area ratio (compound peak area/internal standard peak area) against time, the gradient of the line was determined. Subsequently, half-life and intrinsic clearance were calculated using the equations below: Eliminationrateconstant(K)=(−gradient) Halflife(t1/2)(min)=0.693/K Cli(mL/min/gprotien)=V×0.693/t1/2 WhereV=Incubationvolume(mL/gmicrosomalprotien)

[6] = Intrinsic clearance (CLint) assay, human liver microsomes; assay type: in vitro ADME; settings: for half-life at 0.5 µM: human, pooled human liver microsomes, pH 7.4, human liver microsomes, read-out: Microsomal t1/2 Human; for % LBF Human: liver blood flow; for CLpred Human: predicted metabolic clearance; for % LBF given as a fraction (metabolic stability class): predicted hepatic clearance, microsomal stability
Procedure: as §2, §3

Mtb H37Rv = settings: duplicate; analogues

Sequence of human serum albumin (P02768 25-609): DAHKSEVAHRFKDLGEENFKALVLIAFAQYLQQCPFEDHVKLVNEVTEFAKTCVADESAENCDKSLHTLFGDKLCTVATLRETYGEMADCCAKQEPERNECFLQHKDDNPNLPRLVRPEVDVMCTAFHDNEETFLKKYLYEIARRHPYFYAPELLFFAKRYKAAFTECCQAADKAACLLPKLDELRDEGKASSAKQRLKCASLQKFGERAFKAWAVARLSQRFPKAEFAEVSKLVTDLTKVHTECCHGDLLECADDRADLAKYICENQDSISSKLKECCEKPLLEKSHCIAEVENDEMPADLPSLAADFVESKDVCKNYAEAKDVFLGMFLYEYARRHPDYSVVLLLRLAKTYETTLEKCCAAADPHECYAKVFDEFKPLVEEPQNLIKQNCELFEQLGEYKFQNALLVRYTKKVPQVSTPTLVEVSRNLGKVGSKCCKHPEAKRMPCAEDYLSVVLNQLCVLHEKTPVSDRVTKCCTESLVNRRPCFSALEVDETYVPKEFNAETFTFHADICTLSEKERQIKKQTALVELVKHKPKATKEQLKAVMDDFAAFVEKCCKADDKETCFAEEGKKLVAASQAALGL

| Structure (SMILES) | solubility kinetic at 1 h [1] | chromatographic logD (Chrom logD assay) | Papp at 3 h [2] | % HSA (human serum albumin) | remaining at 2 h, 1 uM [3] | remaining at 2 h, 1 uM [4] | % LBF Mouse [5] | CLint Mouse [5] | half-life at 0.5 µM [5] | CLpred Mouse [5] | CLint Human ([6]; human liver microsomes) | half-life at 0.5 µM [6] | % LBF Human [6] | CLpred Human [6] | MIC against Mtb H37Rv (Mtb H37Rv) | Microsomal t1/2 Human ([6]; human liver microsomes) | % LBF given as a fraction (metabolic stability class) [6] | chromatographic logD (Chrom logD assay; reversed phase HPLC column (Gemini NX C18)) |
| --- | --- | --- | --- | --- | --- | --- | --- | --- | --- | --- | --- | --- | --- | --- | --- | --- | --- | --- |
| CC[C@H](C)[C@@H]1NC(=O)[C@@H](CC(C)C)NC(=O)[C@H](CC(C)C)NC(=O)[C@H](Cc2c[nH]c3ccccc23)NC(=O)[C@@H](CCCN)NC(=O)[C@H](CC(N)=O)NC1=O [Compound 7c] (cyclo(IN[dOrn]WL[dL])) | ≥ 177 µg/mL | 1.83 | < 1 ×10⁻⁶ cm/s | 76.35% | 98% | 99% | <16.27% | <0.48 mL/min/g tissue | > 2.31 h | <20.50 mL/min/kg | 1.70 mL/min/g tissue | 0.54 h | 69.81% | 12.57 mL/min/kg | – | – | – | – |
| CC(C)C[C@@H]1NC(=O)[C@@H](Cc2ccc(Cl)cc2)NC(=O)[C@@H](CCCN)NC(=O)[C@H](CC(N)=O)NC(=O)[C@H](C(C)C)NC(=O)[C@@H](CC(C)C)NC1=O [Compound 14c] (cyclo(L[dL]VN[dOrn][dPhe(4-Cl)])) | ≥ 218 µg/mL | 1.9 | < 1 ×10⁻⁶ cm/s | 70.25% | 70% | 104% | <16.27% | <0.48 mL/min/g tissue | > 2.31 h | <20.50 mL/min/kg | <0.40 mL/min/g tissue | > 2.31 h | <35.08% | 6.31 mL/min/kg | 40 µM (≈ 29.4 µg/mL) | – | – | – |
| CC(C)C[C@@H]1NC(=O)[C@H](C)NC(=O)[C@@H](CCCN)NC(=O)[C@H](CC(N)=O)NC(=O)[C@H](C(C)C)NC(=O)[C@@H](CC(C)C)NC1=O [Compound 3c] (cyclo(AL[dL]VN[dOrn])) | 136 µg/mL (≈ 218 µM) | – | – | 26% and 25.51% | 92% | 86% | <16.27% | <0.48 mL/min/g tissue | > 2.31 h | <20.50 mL/min/kg | <0.40 mL/min/g tissue | > 2.31 h | <35.08% | 6.31 mL/min/kg | >80 µM | – | – | – |
| CC(C)C[C@@H]1NC(=O)[C@H](Cc2c[nH]c3ccccc23)NC(=O)[C@@H](CCCN)NC(=O)[C@H](CC(N)=O)NC(=O)[C@H](C(C)C)NC(=O)[C@@H](Cc2ccc(Cl)cc2)NC1=O [Compound 16c] (cyclo(L[dPhe(4-Cl)]VN[dOrn]W)) | ≥ 192 µg/mL | 1.92 | < 0.3 ×10⁻⁶ cm/s | 92% and 92.54% | 98% | 99% | 19.21% | 0.59 mL/min/g tissue | 1.89 h | 24.21 mL/min/kg | 2.43 mL/min/g tissue | < 0.5 h | 76.78% | 13.82 mL/min/kg | – | 0.3773 h | > ¾ | – |
| CC(C)C[C@@H]1NC(=O)[C@H](Cc2c[nH]c3ccccc23)NC(=O)[C@@H](CCCN)NC(=O)[C@@H](CCCN)NC(=O)[C@H](C(C)C)NC(=O)[C@@H](CC(C)C)NC1=O [Compound 9c] (cyclo(L[dL]V[dOrn][dOrn]W)) | 39 µg/mL (≈ 52.7 µM) | 1.32 | 1 ×10⁻⁶ cm/s | 86.46% | 100% | 100% | 18.68% | 0.57 mL/min/g tissue | 1.95 h | 23.53 mL/min/kg | 0.45 mL/min/g tissue | 2.03 h | 38.08% | 6.85 mL/min/kg | – | – | < 1/3 | – |
| CC[C@H](C)[C@@H]1NC(=O)[C@H](Cc2c[nH]c3ccccc23)NC(=O)[C@@H](CCCN)NC(=O)[C@H](CC(N)=O)NC(=O)[C@H](C(C)C)NC(=O)[C@@H](CC(C)C)NC1=O [Compound 19c] (cyclo(I[dL]VN[dOrn]W)) | ≥ 183 µg/mL | – | < 1 ×10⁻⁶ cm/s | 67.10% | – | – | <16.3% | <0.48 mL/min/g tissue | > 2.31 h | <20.50 mL/min/kg | <0.40 mL/min/g tissue | > 2.31 h | <35.08% | <6.35 mL/min/kg | 7.5 µM (≈ 5.55 µg/mL) | – | – | 1.73 |
